Experimental data from patent publication US20080207641A1 (Synta Pharmaceuticals Corp., priority 2006, published 2008).
Values after ≈ are worked out from the molar mass of the structure shown.

Experiments:
[1] = Solubility of salts (water solubility); assay type: physicochemical; settings: for Water Solubility: salts of the parent compound
[2] = Pharmacokinetic profile / oral bioavailability in male SD rats; assay type: in vivo; settings: rat; for AUC(0-inf) / AUC(0-t) / Cmax / Tmax / half-life: plasma
Description: The pharmacokinetic profile of 3-fluoro-N-(4-(4-methyl-1-(thiazol-2-yl)-1,2,5,6-tetrahydro pyridin-3-yl)phenyl)isonicotinamide dihydrochloride was studied in male SD rats. Rats were bled at 5 min (IV only), 15 min, 30 min, 1 h, 2 h, 4 h, 6 h, 8 h and 24 h. Samples were prepared by mixing 50 μL of plasma, 5 μL, DMSO, and 250 μL of ACN, followed by shaking for 5 min, centrifuging at 4400 rpm for 15 min at 8° C. 225 μL of supernatant was vacuum dried, reconstituted with 180 μL of 20% ACN (10 mM NH4OAc), shaken for ˜2 min and transferred to 96MT plate. Samples were analyzed by HPLC, Phenomenex Onyx Monolithic C18, 4.6×100 mm column eluted with 30-95% ACN (10 mM NH4OAc) gradient. Detection was at 280 nm.

[3] = Solubility in simulated gastric fluids; assay type: physicochemical
From the text: Solubility in Simulated Gastric Fluids

IL-2 production = assay: Inhibition of IL-2 production in PHA-activated Jurkat cells (ELISA); assay type: cell-based; settings: Homo sapiens, 20 h, PHA 2.5 μg/mL, 20 hours at 37° C., IL-2 ELISA
Description: Jurkat cells were placed in a 96 well plate (0.5 million cells per well in 1% FBS medium) then a test compound of this invention was added at different concentrations. After 10 minutes, the cells were activated with PHA (final concentration 2.5 μg/mL) and incubated for 20 hours at 37° C. under CO2. The final volume was 200 μL. Following incubation, the cells were centrifuged and the supernatants collected and stored at −70° C. prior to assaying for IL-2 production. A commercial ELISA kit (IL-2 Eli-pair, Diaclone Research, Besancon, France) was used to detect production of IL-2, from which dose response curves were obtained. The IC50 value was calculated as the concentration at which 50% of maximum IL-2 production after stimulation was inhibited versus a non-stimulation control.

In the case of `CC1=C(c2ccc(NC(=O)c3ccncc3F)cc2)CN(c2nccs2)CC1` [Compound H2SO4, 3-fluoro-N-(4-(4-methyl-1-(thiazol-2-yl)-1,2,5,6-tetrahydropyridin-3-yl)phenyl)isonicotinamide], the “Water Solubility” value [1] is reported as 12.69 mg/mL.

For `CC1=C(c2ccc(NC(=O)c3ccncc3F)cc2)CN(c2nccs2)CC1.Cl.Cl` [3-fluoro-N-(4-(4-methyl-1-(thiazol-2-yl)-1,2,5,6-tetrahydropyridin-3-yl)phenyl)isonicotinamide dihydrochloride], the solubility ([1]; dihydrochloride salt) was over 12 mg/mL, the bioavailability ([2]; in vivo, PO, 50 mg/kg, 0.5% MC, read-out: % F (oral bioavailability)) was 93.4% and the AUC(0-inf) ([2]; IV, 5 mg/kg, DRD formulation) was 37.6 µM·h. For the same compound, the AUC(0-t) ([2]; IV, 5 mg/kg, DRD formulation) was 37.5 µM·h, the Cmax ([2]; IV, 5 mg/kg, DRD formulation) was 34.6 µM and the Tmax ([2]; IV, 5 mg/kg, DRD formulation) was 0.083 h. For the same compound, the half-life ([2]; IV, 5 mg/kg, DRD formulation) was 1 h, the AUC(0-inf) ([2]; PO, 50 mg/kg, 0.5% MC) was 351 µM·h and the AUC(0-t) ([2]; PO, 50 mg/kg, 0.5% MC) was 348 µM·h. The Cmax ([2]; PO, 50 mg/kg, 0.5% MC) was 43.5 µM, the Tmax ([2]; PO, 50 mg/kg, 0.5% MC) was 2 h and the half-life ([2]; PO, 50 mg/kg, 0.5% MC) was 3.2 h.

With `CC1=C(c2ccc(NC(=O)c3ccncc3F)cc2)CN(c2nccs2)CC1` [Tartrate, 3-fluoro-N-(4-(4-methyl-1-(thiazol-2-yl)-1,2,5,6-tetrahydropyridin-3-yl)phenyl)isonicotinamide] the “Water Solubility” value [1] was 1.34 mg/mL.

With `CC1=C(c2ccc(NC(=O)c3ccncc3F)cc2)CN(c2nccs2)CC1` [Citrate, 3-fluoro-N-(4-(4-methyl-1-(thiazol-2-yl)-1,2,5,6-tetrahydropyridin-3-yl)phenyl)isonicotinamide] the “Water Solubility” value [1] was 1.19 mg/mL.

In the case of `CC1=C(c2ccc(NC(=O)c3ccncc3F)cc2)CN(c2nccs2)CC1` [Succinate, 3-fluoro-N-(4-(4-methyl-1-(thiazol-2-yl)-1,2,5,6-tetrahydropyridin-3-yl)phenyl)isonicotinamide], the “Water Solubility” value [1] is reported as 0.36 mg/mL.

Work on `CC1=C(c2ccc(NC(=O)c3c(F)cccc3F)cn2)CN(c2nccs2)CC1` [Compound 11, 2,6-difluoro-N-(6-(4-methyl-1-(thiazol-2-yl)-1,2,5,6-tetrahydropyridin-3-yl)pyridin-3-yl)benzamide] yielded a solubility ([3]; simulated gastric fluid) of 100 µM (≈ 41.2 µg/mL) and an IC50 (IL-2 production) of 0.075 to 0.15 µM.

For `CC1=C(c2ccc(NC(=O)c3ccncc3F)cc2)CN(c2nccs2)CC1` [HBr, 3-fluoro-N-(4-(4-methyl-1-(thiazol-2-yl)-1,2,5,6-tetrahydropyridin-3-yl)phenyl)isonicotinamide], the “Water Solubility” value [1] was 11.56 mg/mL.

With `CC1=C(c2ccc(NC(=O)c3c(F)cncc3F)cc2)CN(c2nccs2)CC1` [Compound 32, 3,5-difluoro-N-(4-(4-methyl-1-(thiazol-2-yl)-1,2,5,6-tetrahydropyridin-3-yl)phenyl)isonicotinamide] the solubility [3] was 150 µM (≈ 61.9 µg/mL) and the IC50 (IL-2 production) was at most 0.035 µM.
